Biological target: GLP-1R (Homo sapiens, UniProt P43220)
Assay: GLP-1R Activation - cAMP Assay
Assay type: cell-based
Conditions: cAMP increase in CHO cells stably expressing GLP-1R; each compound run on one of the two cAMP assays (Assay 1 or Assay 2, not specified)
Outline: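 cAMP rise read by HTRF after 30 min agonist exposure (10-point titration, 37 °C) in HBSS/20 mM Hepes/0.1% BSA, following 1 h pre-incubation. Cells: stable GLP-1R CHO line, 1,000/well, seeded overnight. Sigmoidal fit of response vs log concentration gives EC50.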

Sequence of GLP-1R (P43220 24-463): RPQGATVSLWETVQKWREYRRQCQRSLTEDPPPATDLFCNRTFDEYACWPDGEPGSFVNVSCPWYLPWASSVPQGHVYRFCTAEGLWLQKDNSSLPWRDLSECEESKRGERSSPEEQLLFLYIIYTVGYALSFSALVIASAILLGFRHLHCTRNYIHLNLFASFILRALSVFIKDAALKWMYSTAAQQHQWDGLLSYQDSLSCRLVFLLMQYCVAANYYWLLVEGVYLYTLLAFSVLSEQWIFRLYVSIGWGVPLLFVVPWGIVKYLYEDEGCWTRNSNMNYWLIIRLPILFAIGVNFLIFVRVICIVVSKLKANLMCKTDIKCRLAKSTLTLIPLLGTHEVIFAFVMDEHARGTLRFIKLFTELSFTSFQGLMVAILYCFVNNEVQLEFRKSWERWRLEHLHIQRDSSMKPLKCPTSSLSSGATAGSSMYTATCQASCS

CC1(C)COC[C@H]1n1c(Cc2cc(F)c(-c3cccc(OCc4ccc(OCC(F)(F)F)nc4)n3)cc2F)nc2ccc(C(=O)O)cc21 [Example 424, (S)-2-(2,5-difluoro-4-(6-((6-(2,2,2-trifluoroethoxy)pyridin-3-yl)methoxy)pyridin-2-yl)benzyl)-1-(4,4-dimethyltetrahydrofuran-3-yl)-1H-benzo[d]imidazole-6-carboxylic acid]
EC50: 0.59 nM

CC1(C)COC[C@H]1n1c(Cc2cc(F)c(-c3ccnc(OCc4ccc(Cl)cc4Cl)n3)cc2F)nc2c(F)cc(C(=O)O)cc21 [Example 404, (S)-2-(4-(2-((2,4-dichlorobenzyl)oxy)pyrimidin-4-yl)-2,5-difluorobenzyl)-1-(4,4-dimethyltetrahydrofuran-3-yl)-4-fluoro-1H-benzo[d]imidazole-6-carboxylic acid]
EC50: 0.068 nM

CC1(C)COCCC1n1c(Cc2cc(F)c(-c3cccc(OCc4ccc(C#N)cc4F)n3)cc2F)nc2ccc(C(=O)O)cc21 (stereo not shown) [Example 83, 2-(4-(6-((4-cyano-2-fluorobenzyl)oxy)pyridin-2-yl)-2,5-difluorobenzyl)-1-(3,3-dimethyltetrahydro-2H-pyran-4-yl)-1H-benzo[d]imidazole-6-carboxylic Acid]
EC50: 0.62 nM

Cc1cnc(COc2cccc(-c3cc(F)c(Cc4nc5ccc(C(=O)O)cc5n4[C@@H]4COCC4(C)C)cc3F)n2)c(F)c1 [Example 237, (S)-2-(2,5-difluoro-4-(6-((3-fluoro-5-methylpyridin-2-yl)methoxy)pyridin-2-yl)benzyl)-1-(4,4-dimethyltetrahydrofuran-3-yl)-1H-benzo[d]imidazole-6-carboxylic acid]
EC50: 0.52 nM

C[C@H]1COC[C@H]1n1c(Cc2cc(F)c(-c3ccc(F)c(OCc4ccc(C#N)cc4)n3)cc2F)nc2ccc(C(=O)O)cc21 [Example 480, 2-(4-(6-((4-cyanobenzyl)oxy)-5-fluoropyridin-2-yl)-2,5-difluorobenzyl)-1-((3S,4R)-4-methyltetrahydrofuran-3-yl)-1H-benzo[d]imidazole-6-carboxylic acid]
EC50: 0.223 nM

CC1(C)COC[C@H]1n1c(Cc2cc(F)c(-c3cccc(OCc4ccc(C(F)(F)F)cc4F)n3)cc2F)nc2ccc(C(=O)O)cc21 [Example 168, (S)-2-(2,5-difluoro-4-(6-((2-fluoro-4-(trifluoromethyl)benzyl)oxy)pyridin-2-yl)benzyl)-1-(4,4-dimethyltetrahydrofuran-3-yl)-1H-benzo[d]imidazole-6-carboxylic Acid]
EC50: 0.388 nM

CO[C@@H](C)Cn1c(Cc2cc(F)c(-c3cccc(OCc4ccc(C#N)cc4F)n3)cc2F)nc2c(F)cc(C(=O)O)cc21 [Example 518, (S)-2-(4-(6-((4-cyano-2-fluorobenzyl)oxy)pyridin-2-yl)-2,5-difluorobenzyl)-4-fluoro-1-(2-methoxypropyl)-1H-benzo[d]imidazole-6-carboxylic acid]
EC50: 0.887 nM

CO[C@H]1COC[C@H]1n1c(Cc2cc(F)c(-c3ccc(F)c(OCc4ccc(Cl)cc4F)n3)cc2F)nc2ccc(C(=O)O)cc21 [Example 534, 2-(4-(6-((4-chloro-2-fluorobenzyl)oxy)-5-fluoropyridin-2-yl)-2,5-difluorobenzyl)-1-((3R,4R)-4-methoxytetrahydrofuran-3-yl)-1H-benzo[d]imidazole-6-carboxylic acid]
EC50: 0.353 nM

COc1cc(Cl)ncc1COc1cccc(-c2cc(F)c(Cc3nc4ccc(C(=O)O)cc4n3[C@@H]3COCC3(C)C)cc2F)n1 (single isomer, unassigned) [Example 290A]
EC50: 0.063 nM

COCCn1c(Cc2c(F)cc(-c3cccc(OCc4ccc(C#N)cc4)n3)c(F)c2F)nc2c(F)cc(C(=O)O)cc21 [Example 378, 2-(4-(6-((4-cyanobenzyl)oxy)pyridin-2-yl)-2,3,6-trifluorobenzyl)-4-fluoro-1-(2-methoxyethyl)-1H-benzo[d]imidazole-6-carboxylic acid]
EC50: 0.321 nM

CC1(C)COC[C@H]1n1c(Cc2ccc(-c3ccc(F)c(OCc4ccc(C#N)cc4)n3)cc2F)nc2c(F)cc(C(=O)O)cc21 [Example 308, (S)-2-(4-(6-((4-cyanobenzyl)oxy)-5-fluoropyridin-2-yl)-2-fluorobenzyl)-1-(4,4-dimethyltetrahydrofuran-3-yl)-4-fluoro-1H-benzo[d]imidazole-6-carboxylic acid]
EC50: 0.18 nM

CC1(C)COC[C@H]1n1c(Cc2cc(F)c(-c3cccc(OCc4ccc5c(c4)CN(S(C)(=O)=O)C5)n3)cc2F)nc2ccc(C(=O)O)cc21 [Example 248, (S)-2-(2,5-difluoro-4-(6-((2-(methylsulfonyl)isoindolin-5-yl)methoxy)pyridin-2-yl)benzyl)-1-(4,4-dimethyltetrahydrofuran-3-yl)-1H-benzo[d]imidazole-6-carboxylic acid]
EC50: 0.186 nM

CC1(C)COCC1n1c(Cc2cc(F)c(-c3cccc(OCc4cnc(Cl)cc4F)n3)cc2F)nc2ccc(C(=O)O)cc21 (stereo not shown) [Example 295, 2-(4-(6-((6-chloro-4-fluoropyridin-3-yl)methoxy)pyridin-2-yl)-2,5-difluorobenzyl)-1-(4,4-dimethyltetrahydrofuran-3-yl)-1H-benzo[d]imidazole-6-carboxylic acid]
EC50: 0.042 nM

CC1(C)COC[C@H]1n1c(Cc2cc(F)c(-c3ccc(F)c(OCc4ccc(C(F)(F)F)cc4)n3)cc2F)nc2ccc(C(=O)O)cc21 [Example 536, (S)-2-(2,5-difluoro-4-(5-fluoro-6-((4-(trifluoromethyl)benzyl)oxy)pyridin-2-yl)benzyl)-1-(4,4-dimethyltetrahydrofuran-3-yl)-1H-benzo[d]imidazole-6-carboxylic acid]
EC50: 0.083 nM

CC(C)O[C@H]1COC[C@H]1n1c(Cc2cc(F)c(-c3cccc(OCc4ccc(Cl)cc4F)n3)cc2F)nc2ccc(C(=O)O)cc21 [Example 570, 2-(4-(6-((4-chloro-2-fluorobenzyl)oxy)pyridin-2-yl)-2,5-difluorobenzyl)-1-((3R,4R)-4-isopropoxytetrahydrofuran-3-yl)-1H-benzo[d]imidazole-6-carboxylic acid]
EC50: 0.955 nM

CC12CC(n3c(Cc4cc(F)c(-c5cccc(OCc6ccc(C#N)cc6F)n5)cc4F)nc4ccc(C(=O)O)cc43)(CO1)C2 (racemic) [Example 270, 2-(4-(6-((4-cyano-2-fluorobenzyl)oxy)pyridin-2-yl)-2,5-difluorobenzyl)-1-((1s,4s)-1-methyl-2-oxabicyclo[2.1.1]hexan-4-yl)-1H-benzo[d]imidazole-6-carboxylic acid]
EC50: 6090 nM

COCCn1c(Cc2cc(F)c(-c3cccc(OCc4ccc(-n5ccnn5)nc4)n3)cc2F)nc2c(F)cc(C(=O)O)cc21 [Example 221, 2-(4-(6-((6-(1H-1,2,3-triazol-1-yl)pyridin-3-yl)methoxy)pyridin-2-yl)-2,5-difluorobenzyl)-4-fluoro-1-(2-methoxyethyl)-1H-benzo[d]imidazole-6-carboxylic acid]
EC50: 0.508 nM

CC1(C)COC[C@H]1n1c(Cc2cc(F)c(-c3ccc(F)c(OCc4ccc(C#N)cc4)n3)cc2F)nc2ccc(C(=O)O)cc21 [Example 188, (S)-2-(4-(6-((4-cyanobenzyl)oxy)-5-fluoropyridin-2-yl)-2,5-difluorobenzyl)-1-(4,4-dimethyltetrahydrofuran-3-yl)-1H-benzo[d]imidazole-6-carboxylic acid]
EC50: 0.032 nM

O=C(O)c1ccc2nc(Cc3cc(F)c(-c4cccc(OCc5ccc6ncsc6c5)n4)cc3F)n(C[C@@H]3CCO3)c2c1 [Example 530, (S)-2-(4-(6-(benzo[d]thiazol-6-ylmethoxy)pyridin-2-yl)-2,5-difluorobenzyl)-1-(oxetan-2-ylmethyl)-1H-benzo[d]imidazole-6-carboxylic acid]
EC50: 0.392 nM

Cc1cc(Cc2nc3ccc(C(=O)O)cc3n2C[C@@H]2CCO2)c(Cl)cc1-c1ccc(F)c(OCc2ccc(C#N)cc2F)n1 [Example 144, (S)-2-(2-chloro-4-(6-((4-cyano-2-fluorobenzyl)oxy)-5-fluoropyridin-2-yl)-5-methylbenzyl)-1-(oxetan-2-ylmethyl)-1H-benzo[d]imidazole-6-carboxylic Acid]
EC50: 1.08 nM

Cc1c(-c2cccc(OCc3ccc(C#N)cc3F)n2)ccc(Cc2nc3ccc(C(=O)O)cc3n2C[C@@H]2CCO2)c1F [Example 146, (S)-2-(4-(6-((4-cyano-2-fluorobenzyl)oxy)pyridin-2-yl)-2-fluoro-3-methylbenzyl)-1-(oxetan-2-ylmethyl)-1H-benzo[d]imidazole-6-carboxylic Acid]
EC50: 0.379 nM

CC1(C)COCC1n1c(Cc2cc(F)c(-c3ccc(F)c(OCc4ccc(Cl)cc4F)n3)cc2F)nc2c(F)cc(C(=O)O)cc21 (stereo not shown) [Example 347, 2-(4-(6-((4-chloro-2-fluorobenzyl)oxy)-5-fluoropyridin-2-yl)-2,5-difluorobenzyl)-1-(4,4-dimethyltetrahydrofuran-3-yl)-4-fluoro-1H-benzo[d]imidazole-6-carboxylic acid]
EC50: 0.132 nM

Cc1cc(Cc2nc3ccc(C(=O)O)cc3n2[C@@H]2COCC2(C)C)c(Cl)cc1-c1cccc(OCc2ccc(C#N)cc2F)n1 [Example 141, (S)-2-(2-chloro-4-(6-((4-cyano-2-fluorobenzyl)oxy)pyridin-2-yl)-5-methylbenzyl)-1-(4,4-dimethyltetrahydrofuran-3-yl)-1H-benzo[d]imidazole-6-carboxylic Acid]
EC50: 0.079 nM

CC1(C)COC[C@H]1n1c(Cc2cc(F)c(-c3cccc(OCc4cnc(-n5ccnn5)cc4Cl)n3)cc2F)nc2ccc(C(=O)O)cc21 [Example 118, (S)-2-(4-(6-((4-chloro-6-(1H-1,2,3-triazol-1-yl)pyridin-3-yl)methoxy)pyridin-2-yl)-2,5-difluorobenzyl)-1-(4,4-dimethyltetrahydrofuran-3-yl)-1H-benzo[d]imidazole-6-carboxylic Acid]
EC50: 0.053 nM

Cn1nncc1-c1ccc(COc2cccc(-c3cc(F)c(Cc4nc5ccc(C(=O)O)cc5n4[C@@H]4COCC4(C)C)cc3F)n2)c(F)c1 [Example 554, (S)-2-(2,5-difluoro-4-(6-((2-fluoro-4-(1-methyl-1H-1,2,3-triazol-5-yl)benzyl)oxy)pyridin-2-yl)benzyl)-1-(4,4-dimethyltetrahydrofuran-3-yl)-1H-benzo[d]imidazole-6-carboxylic acid]
EC50: 0.026 nM
